Experimental data as given in patent US4772606A, “Purine derivatives” (Warner-Lambert Company, priority 1985, dated 1988).
Counter-ions that a name gives are not always drawn. Like-named read-outs stand apart in the source and are kept apart here.

Assays:
[1] = molecular target: T1, purine nucleoside phosphorylase (PNP-4) (Homo sapiens, UniProt P00491); assay: purine nucleoside phosphorylase (PNP-4) enzyme assay, radiochemical, formation of [14C]-hypoxanthine from [14C]inosine; type: biochemical; settings: erythrocyte enzyme; [14C]inosine substrate
T1 construct: using hyman erythrocyte as the enzyme source; from tissue; host or cells: human erythrocytes
T1 sequence (P00491 1-289): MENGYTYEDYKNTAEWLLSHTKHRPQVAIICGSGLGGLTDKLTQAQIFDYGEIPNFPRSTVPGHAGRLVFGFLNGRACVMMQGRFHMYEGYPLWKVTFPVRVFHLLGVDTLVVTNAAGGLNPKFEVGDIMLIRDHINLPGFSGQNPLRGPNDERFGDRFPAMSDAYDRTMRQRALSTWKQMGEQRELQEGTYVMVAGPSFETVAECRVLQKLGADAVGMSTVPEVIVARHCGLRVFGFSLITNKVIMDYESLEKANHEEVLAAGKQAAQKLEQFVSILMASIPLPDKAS

T-Cell = assay: HTBA-1 T-cell cytotoxicity in the presence of 2'-deoxyguanosine; type: cell-based; settings: read-out: HTBA-1 T-Cell +dGuo (10 μM) IC50

Structure (SMILES) | IC50 [1] [nM] | IC50 (T-Cell) [µM] | IC50 (T-Cell; +dGuo (10 μM)) [µM]
Nc1nc2c(nc(N)n2Cc2cccs2)c(=O)[nH]1 [2 or 9a] | 170 | 0.83 | 
Nc1nc2c(ncn2Cc2cccnc2)c(=O)[nH]1 [Example 1, 9-[(3-Pyridinyl)methyl]guanine] | 21900 |  | 54.1
CCc1ccc(Cn2cnc3c(=O)[nH]c(N)nc32)s1 [Example 3, 9-[(5-Ethyl-2-thienyl)methyl]guanine] | 930 |  | 4.15
Nc1nc2c(nc(N)n2Cc2ccco2)c(=O)[nH]1 [Example 9b, 8-Amino-9-(2-furanylmethyl)guanine monohydrochloride] | 250 | 2.57 | 
Nc1nc2c(nc(N)n2Cc2ccsc2)c(=O)[nH]1 [Example 9c, 8-Amino-9-[(3-thienyl)methyl]guanine, monohydrochloride, monohydrate] | 85 |  | 0.49
Cc1ccsc1Cn1c(N)nc2c(=O)[nH]c(N)nc21 [Example 9d, 8-Amino-9-[(3-methyl-2-thienyl)methyl]guanine] | 4050 |  | 8.6
Nc1nc2c(nc(N)n2Cc2csc3ccccc23)c(=O)[nH]1 [Example 9e, 8-Amino-9-[(benzo[b]thien-3-yl)methyl]guanine] | 140000 |  | 
Nc1nc2c(nc(N)n2CCc2cccs2)c(=O)[nH]1 [Example 16Ac] | 6250 |  | 17.6
Cc1sccc1Cn1c(N)nc2c(=O)[nH]c(N)nc21 [Example 16Ad] | 1720 |  | 18.2
Nc1nc2c(nc(N)n2Cc2ccccn2)c(=O)[nH]1 [Example 16Af] | 4600 |  | 
Nc1nc2c(nc(N)n2Cc2cc3ccccc3s2)c(=O)[nH]1 [Example 16Ag] | 8450 |  | > 12.5
Cc1cc(Cn2c(N)nc3c(=O)[nH]c(N)nc32)cs1 [Example 16Ak] | 630 |  | 2.8
